# Reference: US20170209455A1, “Solid Pharmaceutical Composition Comprising PI3K-Inhibitor” (NOVARTIS AG, priority 2014, published 2017)
# Tests used:
# Assay type in all cases: physicochemical
# [1] = Physical state of compound of formula (I) in melt extrudates by XRPD
# Protocol: X-Ray Powder Diffraction (XRPD) Analysis
# • Principle: X-ray powder diffraction (XRPD) in reflection geometry • Equipment: Powder diffractomer e.g. type Bruker D8 Discover • Procedure: Place the test substance on the specimen holder. Record the X-ray diffraction pattern between 5° and 40° (2-theta) with Cu Kα radiation (1.5406 Å) in reflection geometry using the following conditions • Detector type: Lynx Eye • High voltage: 40 kV • Current: 40 mA • Scan type: continuous • Step time: 0.3 s • Step size: 0.016° • Soller slit: 2.5° • Slits: 0.6 mm • Method: A part of the sample is used without preparation for the measurement. […] Record the X-ray diffraction pattern between 5° and 40° (2Theta) with CuKα radiation. • Evaluation: Observe the recorded diffractogram and report any detectable diffraction peak. […]
# (§1) Melt extrudates were prepared according to example 1. The kinetic solubility and the physical state of the compound of formula (I) were determined. […] Kinetic solubility were determined by adding melt extrudates equivalent to 100 mg of the compound of formula (I) in pH 6.8 phosphate buffer using a rotating bottle at 50 rpm and at a temperature of 37° C. The physical state (crystalline or amorphous) was determined by XRPD (discrete peaks indicating some of the material being in a crystalline state, absence of peaks indicating amorphous state).
# [2] = Chemical compatibility of the compound of formula (I) with polymers: melt extrudates analysed by HPLC for total impurity; conditions: hot melt extrusion
# From the text: Assay, Degradation Products/Impurities by HPLC
# Principle: RP HPLC with UV detection
# • Acetonitrile (HPLC grade, e.g. Merck) • Water (e.g. from Milli-Q instrument) • Methanol (Analytical grade, e.g. Sigma-Aldrich or equivalent) • Solvent: Water/acetonitrile 40/60 (v/v)
# • Apparatus: e.g. HP 1290 (UPLC) • Column: Waters Acquity BEH C18 (Length 100 mm, internal diameter 2.1 mm or equivalent column and particle size 1.7 μm)
# • Mobile Phase: • A: Water/Acetonitrile/TFA (95:5:0.05 v/v/v) • B: Water/Acetonitrile/TFA (5:95:0.05 v/v/v)
# Column temperature: 30° C. Auto-sampler temperature: Ambient Needle wash: Methanol/water 80/20 (v/v) Injection volume: • 2 μl of the test and reference solutions, equivalent to about • 0.6 μg of drug substance compound of formula (I) in the reference solution Run time: 18 min […]
# The compatibility of the compound of formula (I) with various polymers was tested by preparing melt extrudates according to the manufacturing process as described in example 1 and analyzing the resulting melt extrudates by HPLC to determine the amount of degradation or related products (“impurities”) of the compound of formula (I). […] The amount of total impurities was assessed according to the guideline that the sum of specified and unspecified impurities (herein referred to as total impurity) is preferably not more than (NMT) 0.5%. […]
# [3] = Kinetic solubility of melt extrudates (rotating bottle); conditions: aqueous buffer; melt extrudates equivalent to 100 mg compound of formula (I), pH 6.8 phosphate buffer, rotating bottle 50 rpm, 37° C.
# Protocol: • Principle: Measurement of the amount of drug substance solubilized using rotating bottle apparatus. Determination by HPLC/UV method for sample analysis.
# • Speed of rotation: 50 rpm • Test medium: […] • Volume of test medium: 75 mL • Temperature: 37±0.5° C. Sampling Time points 5, 10, 15, 20, 25, 30, 45, 60 minutes
# Procedure: The concentration maximum is taken as kinetic solubility value.
# as §1
compound,measurement,setting,value
"C[C@H]1OC(=O)N(c2cc(-c3cnc(N)nc3C(F)(F)F)nc(N3CCOCC3)n2)[C@H]1CO [compound of formula (I), (4S,5R)-3-(2′-Amino-2-morpholin-4-yl-4′-trifluoromethyl-[4,5]bipyrimidinyl-6-yl)-4-hydroxymethyl-5-methyl-oxazolidin-2-one]",Physical state of compound of formula (I) (XRPD),[1],Crystalline
same,processing temperature leading to degradation of compound of formula (I),[2],exceeding 205 °C
same,solubility kinetic,[3],~40 µg/mL
